Patent US5292733A, “Cephalosporin compounds” (Lucky Limited, priority 1991, dated 1994)
Converted amounts (≈) assume the structure as drawn.

Experiments:
Experiment in all cases: Antibacterial activity MIC, two-fold agar dilution
Type in all cases: cell-based
[1] = test system: Salmonella typhimurium ATCC 14028; details: Salmonella enterica; Salmonella typhimurium ATCC 14028; Muller-Hinton agar, 37° C., 20 hours; read-out: Antibacterial Activity MIC
Protocol: (§1) These MIC values were taken by employing a two-fold dilution method: that is, two-fold serial dilutions of each of the test compounds were made and dispersed in a Muller-Hinton agar medium; 2 μl of the standard test strain which had the 10^7 CFU(Colony Forming Unit) per ml was inoculated on the medium; and these were incubated at 37° C. for 20 hours. The results of the MIC tests are shown Table 1.

[2] = test system: Morganella morganii ATCC 8076h; details: ATCC8076H, Muller-Hinton agar, 37° C., 20 hours
Protocol: as §1

[3] = test system: Providencia rettgeri ATCC 9250; details: ATCC9250, Muller-Hinton agar, 37° C., 20 hours
Protocol: as §1

[4] = test system: Klebsiella pneumoniae ATCC 10031; details: ATCC10031; Klebsiella pneumoniae ATCC 10031; Muller-Hinton agar, 37° C., 20 hours; read-out: Antibacterial Activity MIC
Protocol: as §1

[5] = test system: Bacillus cereus ATCC 11778; details: ATCC11778; Bacillus cereus ATCC 11778; Muller-Hinton agar, 37° C., 20 hours; read-out: Antibacterial Activity MIC
Protocol: as §1

[6] = test system: Citrobacter freundii ATCC 8090; details: ATCC8090; Citrobacter freundii ATCC 8090; Muller-Hinton agar, 37° C., 20 hours; read-out: Antibacterial Activity MIC
Protocol: as §1

[7] = test system: Streptococcus faecalis ATCC 29212; details: Enterococcus faecalis, ATCC29212; Streptococcus faecalis ATCC 29212; Muller-Hinton agar, 37° C., 20 hours; read-out: Antibacterial Activity MIC
Protocol: as §1

[8] = test system: Enterobacter aerogenes ATCC 29751; details: Klebsiella aerogenes, ATCC29751; Enterobacter aerogenes ATCC 29751; Muller-Hinton agar, 37° C., 20 hours; read-out: Antibacterial Activity MIC
Protocol: as §1

[9] = test system: Escherichia coli ATCC 10536; details: ATCC10536, Muller-Hinton agar, 37° C., 20 hours
Protocol: as §1

[10] = test system: Acinetobacter calcoaceticus ATCC 15473; details: ATCC15473; Acinetobacter calcoaceticus ATCC 15473; Muller-Hinton agar, 37° C., 20 hours; read-out: Antibacterial Activity MIC
Protocol: as §1

[11] = test system: Pseudomonas aeruginosa ATCC 10145; details: ATCC10145; Pseudomonas aeruginosa ATCC 10145; Muller-Hinton agar, 37° C., 20 hours; read-out: Antibacterial Activity MIC
Protocol: as §1

[12] = test system: Enterobacter cloacae ATCC 27508; details: ATCC27508; Enterobacter cloacae ATCC 27508; Muller-Hinton agar, 37° C., 20 hours; read-out: Antibacterial Activity MIC
Protocol: as §1

[13] = test system: Staphylococcus epidermidis ATCC 12228; details: ATCC12228; Staphylococcus epidermidis ATCC 12228; Muller-Hinton agar, 37° C., 20 hours; read-out: Antibacterial Activity MIC
Protocol: as §1

[14] = test system: Staphylococcus aureus ATCC 10537; details: ATCC10537; Staphylococcus aureus ATCC 10537; Muller-Hinton agar, 37° C., 20 hours; read-out: Antibacterial Activity MIC
Protocol: as §1

[15] = test system: Pseudomonas aeruginosa ATCC 27853; details: ATCC27853; Pseudomonas aeruginosa ATCC 27853; Muller-Hinton agar, 37° C., 20 hours; read-out: Antibacterial Activity MIC
Protocol: as §1

[16] = test system: Staphylococcus aureus ATCC 6538p; details: ATCC6538P; Staphylococcus aureus ATCC 6538p; Muller-Hinton agar, 37° C., 20 hours; read-out: Antibacterial Activity MIC
Protocol: as §1

[17] = test system: Micrococcus luteus ATCC 9341; details: ATCC9341; Micrococcus luteus ATCC 9341; Muller-Hinton agar, 37° C., 20 hours; read-out: Antibacterial Activity MIC
Protocol: as §1

[18] = test system: Bacillus megaterium ATCC 9885; details: Priestia megaterium, ATCC9885; Bacillus megaterium ATCC 9885; Muller-Hinton agar, 37° C., 20 hours; read-out: Antibacterial Activity MIC
Protocol: as §1

[19] = test system: Shigella flexneri ATCC 11836; details: ATCC11836, Muller-Hinton agar, 37° C., 20 hours
Protocol: as §1

[20] = test system: Escherichia coli ATCC 25922; details: ATCC25922, Muller-Hinton agar, 37° C., 20 hours
Protocol: as §1

[21] = test system: Shigella sonnei ATCC 11060; details: ATCC11060, Muller-Hinton agar, 37° C., 20 hours
Protocol: as §1

[22] = test system: Proteus mirabilis ATCC 25933; details: ATCC25933; Proteus mirabilis ATCC 25933; Muller-Hinton agar, 37° C., 20 hours; read-out: Antibacterial Activity MIC
Protocol: as §1

[23] = test system: Serratia marcescens ATCC 27117; details: ATCC27117; Serratia marcescens ATCC 27117; Muller-Hinton agar, 37° C., 20 hours; read-out: Antibacterial Activity MIC
Protocol: as §1

[24] = test system: Pseudomonas aeruginosa ATCC 25619; details: ATCC25619; Pseudomonas aeruginosa ATCC 25619; Muller-Hinton agar, 37° C., 20 hours; read-out: Antibacterial Activity MIC
Protocol: as §1

[25] = test system: Proteus vulgaris ATCC 6059; details: ATCC6059; Proteus vulgaris ATCC 6059; Muller-Hinton agar, 37° C., 20 hours; read-out: Antibacterial Activity MIC
Protocol: as §1

Structure (SMILES) | MIC [1] [µg/mL] | MIC [2] [ng/mL] | MIC [3] [ng/mL] | MIC [4] [µg/mL] | MIC [5] [µg/mL] | MIC [6] [µg/mL] | MIC [7] [µg/mL] | MIC [8] [µg/mL] | MIC [9] [µg/mL] | MIC [10] [µg/mL] | MIC [11] [µg/mL] | MIC [12] [µg/mL] | MIC [13] [µg/mL] | MIC [14] [µg/mL] | MIC [15] [µg/mL] | MIC [16] [µg/mL] | MIC [17] [µg/mL] | MIC [18] [µg/mL] | MIC [19] [µg/mL] | MIC [20] [µg/mL] | further results
CC[n+]1c(SCC2=C(C(=O)[O-])N3C(=O)[C@@H](NC(=O)/C(=N\OC(C)C(=O)O)c4csc(N)n4)[C@H]3SC2)cc(N)nc1N (stereo partly drawn) [Compound I-4, (6R,7R)-7-[(Z)-2-(2-aminothiazol-4-yl)-2-(R,S-carboxyeth-1-oxyimino)acetamido]-3-(2,6-diamino-3-ethylpyrimidinium-4-yl)thiomethyl-3-cephem-4-carboxylate] | 0.5 (≈ 0.802 µM) | ≤ 8 | ≤ 8 | 0.031 (≈ 0.0497 µM) | 64 (≈ 103 µM) | 0.13 (≈ 0.208 µM) | > 128 | 1 (≈ 1.6 µM) | 0.13 (≈ 0.208 µM) | 4 (≈ 6.41 µM) | 2 (≈ 3.21 µM) | 0.016 (≈ 0.0257 µM) | 1 (≈ 1.6 µM) | 4 (≈ 6.41 µM) | 2 (≈ 3.21 µM) | 8 (≈ 12.8 µM) | 0.5 (≈ 0.802 µM) | 0.25 (≈ 0.401 µM) | 0.031 (≈ 0.0497 µM) | 0.13 (≈ 0.208 µM) | MIC [21]: 0.25 µg/mL (≈ 0.401 µM); MIC [22]: 0.31 µg/mL (≈ 0.497 µM); MIC [23]: 0.13 µg/mL (≈ 0.208 µM); MIC [24]: 1 µg/mL (≈ 1.6 µM); MIC [25]: 0.063 µg/mL (≈ 0.101 µM)
CCO/N=C(\C(=O)N[C@@H]1C(=O)N2C(C(=O)[O-])=C(CSc3cc(N)nc(N)[n+]3C)CS[C@H]12)c1nsc(N)n1 [Compound I-5, (6R,7R)-7-[(Z)-2-(5-amino-1,2,4-thiadiazol-3-yl)-2-(ethoxyimino)acetamido]-3-(2,6-diamino-3-methylpyrimidinium-4-yl)thiomethyl-3-cephem-4-carboxylate] | 0.5 (≈ 0.882 µM) | ≤ 8 | ≤ 8 | 0.016 (≈ 0.0282 µM) | 64 (≈ 113 µM) | 0.25 (≈ 0.441 µM) | > 128 | 0.5 (≈ 0.882 µM) | 0.13 (≈ 0.229 µM) | 8 (≈ 14.1 µM) | 32 (≈ 56.5 µM) | 0.016 (≈ 0.0282 µM) | 0.5 (≈ 0.882 µM) | 1 (≈ 1.76 µM) | 16 (≈ 28.2 µM) | 2 (≈ 3.53 µM) | 0.031 (≈ 0.0547 µM) | 0.13 (≈ 0.229 µM) | 0.063 (≈ 0.111 µM) | 0.13 (≈ 0.229 µM) | MIC [21]: 0.25 µg/mL (≈ 0.441 µM); MIC [22]: 0.061 µg/mL (≈ 0.108 µM); MIC [23]: 0.5 µg/mL (≈ 0.882 µM); MIC [24]: 2 µg/mL (≈ 3.53 µM); MIC [25]: 0.031 µg/mL (≈ 0.0547 µM)
CCO/N=C(\C(=O)N[C@@H]1C(=O)N2C(C(=O)[O-])=C(CSc3cc(N)nc(N)[n+]3CC)CS[C@H]12)c1nsc(N)n1 [Compound I-6, (6R,7R)-7-[(Z)-2-(5-amino-1,2,4-thiadiazol-3-yl)-2-(ethoxyimino)acetamido]-3-(2,6-diamino-3-ethylpyrimidinium-4-yl)thiomethyl-3-cephem-4-carboxylate] | 0.5 (≈ 0.861 µM) | ≤ 8 | ≤ 8 | 0.031 (≈ 0.0534 µM) | 64 (≈ 110 µM) | 0.13 (≈ 0.224 µM) | > 128 | 0.5 (≈ 0.861 µM) | 0.13 (≈ 0.224 µM) | 8 (≈ 13.8 µM) | 16 (≈ 27.6 µM) | 0.063 (≈ 0.108 µM) | 0.5 (≈ 0.861 µM) | 1 (≈ 1.72 µM) | 16 (≈ 27.6 µM) | 1 (≈ 1.72 µM) | 0.063 (≈ 0.108 µM) | 0.13 (≈ 0.224 µM) | 0.063 (≈ 0.108 µM) | 0.13 (≈ 0.224 µM) | MIC [21]: 0.25 µg/mL (≈ 0.431 µM); MIC [22]: 0.016 µg/mL (≈ 0.0276 µM); MIC [23]: 0.25 µg/mL (≈ 0.431 µM); MIC [24]: 2 µg/mL (≈ 3.44 µM); MIC [25]: 0.031 µg/mL (≈ 0.0534 µM)
